Measured values published in patent publication US6693108B2, “Inhibitors of c-JUN N terminal kinases (JNK) and other protein kinases” (Vertex Pharmaceuticals Incorporated, priority 1999, dated 2004).

The compounds below were run against T1, activated JNK3 (Homo sapiens, UniProt P53779) (assay: JNK3 inhibition, spectrophotometric coupled-enzyme assay). Settings: activated JNK3 10 nM, 10 μM ATP, 30° C.; Ki from competitive inhibition model.
T1 construct: One such construct encodes amino acid residues Ser40-Glu402 of JNK3α1 and is preceded by Met and Gly residues; Met-Gly (initiation Met plus Gly added to create the NcoI site) (N); made in house; host or cells: E. coli BL21 (DE3)
T1 sequence (P53779 40-402): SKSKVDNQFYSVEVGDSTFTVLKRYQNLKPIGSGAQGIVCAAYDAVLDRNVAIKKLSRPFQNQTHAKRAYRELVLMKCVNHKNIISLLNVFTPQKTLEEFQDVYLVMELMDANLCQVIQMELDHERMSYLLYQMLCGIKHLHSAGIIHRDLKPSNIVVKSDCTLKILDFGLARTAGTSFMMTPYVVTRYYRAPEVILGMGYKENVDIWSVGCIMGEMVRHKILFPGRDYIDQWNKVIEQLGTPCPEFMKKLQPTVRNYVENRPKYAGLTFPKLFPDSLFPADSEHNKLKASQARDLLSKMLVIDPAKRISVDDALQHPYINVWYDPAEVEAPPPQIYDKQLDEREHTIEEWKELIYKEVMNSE
Assay type: biochemical
Parameters: Activity in the JNK3 Inhibition Assay (Ki rating): scale not given here
Description: A BLAST search of the EST database using the published JNK3α1 cDNA as a query identified an EST clone (#632588) that contained the entire coding sequence for human JNK3α1. Polymerase chain reactions (PCR) using pfu polymerase (Strategene) were used to introduce restriction sites into the cDNA for cloning into the pET-15B expression vector at the NcoI and BamHI sites. The protein was expressed in E. coli. […] This truncation corresponds to Ser 2 of JNK1 and JNK2 proteins, and is preceded by a methionine (initiation) and a glycine residue. The glycine residue was added in order to introduce an NcoI site for cloning into the expression vector. In addition, systematic C-terminal truncations were performed by PCR to identify a construct that give rise to diffraction-quality crystals.
5 mg of JNK3 was diluted to 0.5 mg/ml in 50 mM HEPES buffer, pH 7.5, containing 100 mM NaCl, 5 mM DTT, 20 mM MgCl2 and 1 mM ATP. GST-MKK7(DD) was added at a molar ratio of 1:2.5 GST-MKK7:JNK3. After incubation for 30 minutes at 25° C., the reaction mixture was concentrated 5-fold by ultrafiltration in a Centriprep-30 (Amicon, Beverly, Mass.), diluted to 10 ml and an additional 1 mM ATP added. This procedure was repeated three times to remove ADP and replenish ATP. The final addition of ATP was 5 mM and the mixture incubated overnight at 4° C.
The activated JNK3/GST-MKK7(DD) reaction mixture was exchanged into 50 mM HEPES buffer, pH 7.5, containing 5 mM DTT and 5% glycerol (w/v) by dialysis or ultrafiltration. The reaction mixture was adjusted to 1.1 M potassium phosphate, pH 7.5, and purified by hydrophobic interaction chromatography (at 25° C.) using a Rainin Hydropore column. […] Activated JNK3 (i.e. doubly phosphorylated JNK3) was stored at −70° C. at 0.25-1 mg/ml.
Compounds were assayed for the inhibition of JNK3 by a spectrophotometric coupled-enzyme assay. In this assay, a fixed concentration of activated JNK3 (10 nM) was incubated with various concentrations of a potential inhibitor dissolved in DMSO for 10 minutes at 30° C. in a buffer containing 0.1 M HEPES buffer, pH 7.5, containing 10 mM MgCl2, 2.5 mM phosphoenolpyruvate, 200 μM NADH, 150 μg/mL pyruvate kinase, 50 μg/mL lactate dehydrogenase, and 200 μM EGF receptor peptide. […] The reaction was initiated by the addition of 10 μM ATP and the assay plate is inserted into the spectrophotometer's assay plate compartment that was maintained at 30° C. The decrease of absorbance at 340 nm was monitored as a function of time. The rate data as a function of inhibitor concentration was fitted to competitive inhibition kinetic model to determine the Ki.

Activity in the JNK3 Inhibition Assay (Ki rating)	SMILES
A/B	COc1ccc(Cl)c(Nc2nccc(-c3c(-c4ccccc4)noc3C)n2)c1 [IIA-71]

Same assay, conditions: read-out: Activity in the JNK3 Inhibition Assay (Ki rating)

SMILES	Ki [µM]
Cc1onc(-c2ccccc2)c1-c1ccnc(Nc2cccc(CCC(=O)O)c2)c1 [IIA-132]	< 0.1
OCc1onc(-c2ccc(F)cc2)c1-c1ccnc(NC2CCCCC2)n1 [XIA-45, [4-(2-Cyclohexylamino-pyrimidin-4-yl)-3-(4-fluoro-phenyl)-isoxazol-5-yl]methanol]	< 0.1
CC(=O)Nc1nccc(-c2c(-c3ccccc3)noc2C)n1 [XA-1]	0.1 to 1
Cc1onc(-c2ccccc2Cl)c1-c1ccnc(Nc2ccccc2)n1 [IIA-76]	0.1 to 1
Cc1ccccc1-c1noc(C)c1-c1ccnc(Nc2cccc(C#N)c2)n1 [IIA-109]	< 0.1
COc1ccc2cc(Nc3nccc(-c4c(-c5ccccc5)noc4C)n3)ccc2c1 [IIAA-10]	< 0.1
COCc1ccc2ccccc2c1Nc1nccc(-c2c(-c3ccccc3)noc2C)n1 [IIAA-18]	0.1 to 1
Cc1onc(-c2cccc(F)c2F)c1-c1ccnc(Nc2ccccc2)n1 [IIA-80]	0.1 to 1
COc1ccc2cc(Nc3nccc(-c4c(-c5c(F)cccc5F)noc4C)n3)ccc2c1 [IIAA-14]	< 0.1
Cc1cc(Nc2nccc(-c3c(-c4ccccc4)noc3C)n2)ccc1C#N [IIA-38]	< 0.1
Cc1onc(-c2ccccc2)c1-c1ccnc(Nc2cccc(CC(=O)O)c2)c1 [IIA-133]	< 0.1
Cc1onc(-c2ccccc2)c1-c1ccnc(Nc2cccc(C(=O)O)c2)c1 [IIA-43]	< 0.1
Cc1ccc(Nc2nccc(-c3c(-c4ccccc4)noc3C)n2)cc1 [IIA-103]	< 0.1
Cc1onc(-c2c(Cl)cccc2Cl)c1-c1ccnc(Nc2ccccc2)n1 [IIA-84]	0.1 to 1
COc1ccccc1Nc1nccc(-c2c(-c3ccccc3)noc2C)n1 [IIA-62]	< 0.1
Cc1ccnc(Nc2nccc(-c3c(-c4ccccc4)noc3C)n2)c1 [IIAA-12]	< 0.1
Cc1onc(-c2cc(F)ccc2F)c1-c1ccnc(Nc2ccccc2)n1 [IIA-74]	0.1 to 1
COC(=O)c1cccc(Nc2nccc(-c3c(-c4cccc(C#N)c4)noc3C)n2)c1 [IIA-129]	0.1 to 1
Cc1onc(-c2ccccc2)c1-c1ccnc(NC2Cc3ccccc3C2)n1 [IIAA-25]	< 0.1
Cc1onc(-c2ccc(F)cc2)c1-c1ccnc(Nc2ccccc2)n1 [IIA-11]	< 0.1
COC(=O)c1ccc2cc(Nc3nccc(-c4c(-c5ccccc5)noc4C)n3)ccc2c1 [IIAA-16]	< 0.1
Cc1onc(C(C)(C)C)c1-c1ccnc(Nc2ccccc2)n1 [IIA-90]	< 0.1
Cc1onc(-c2ccccc2)c1-c1ccnc(Nc2ccccc2F)n1 [IIA-59]	< 0.1
Cc1onc(-c2ccccc2)c1-c1ccnc(Nc2ccc(N(C)C)cc2)c1 [IIA-98]	< 0.1

SMILES	Ki [µM]
Cc1onc(-c2ccccc2)c1-c1ccnc(Nc2cccc(CCC(=O)N[C@@H](C(=O)OC(C)(C)C)C(C)C)c2)c1 [IIA-135]	0.1 to 1
CCOC(=O)c1cccc(Nc2nccc(-c3c(-c4ccccc4)noc3C)n2)c1 [IIA-130]	< 0.1
Cc1onc(-c2ccccc2)c1-c1ccnc(Nc2ccccc2)n1 [IIA-1, [4-(5-Methyl-3-phenyl-isoxazol-4-yl)-pyrimidin-2-yl]-phenyl-amine]	< 0.1
Cc1onc(-c2ccccc2C(F)(F)F)c1-c1ccnc(Nc2ccc(C#N)c(F)c2)n1 [IIA-110]	> 1
CCc1onc(-c2ccccc2)c1-c1ccnc(Nc2ccccc2)c1 [IIA-40]	< 0.1
Cc1onc(-c2c(F)cccc2F)c1-c1ccnc(Nc2cccc(C#N)c2)n1 [IIA-92]	< 0.1
Cc1onc(-c2ccccc2)c1-c1ccnc(Nc2cccc(C#N)c2)c1 [IIA-67]	< 0.1
Cc1onc(-c2cc(F)cc(F)c2)c1-c1ccnc(Nc2ccccc2)n1 [IIA-83]	0.1 to 1
Cc1onc(C2CC2)c1-c1ccnc(Nc2ccccc2)n1 [IIA-87]	> 1
CSc1ccc(Nc2nccc(-c3c(-c4ccccc4)noc3C)n2)cc1 [IIA-46]	< 0.1
COc1ccc2ccccc2c1Nc1nccc(-c2c(-c3ccccc3)noc2C)n1 [IIAA-17]	> 1
Cc1onc(-c2cccc(C#N)c2)c1-c1ccnc(Nc2cccc(C#N)c2)n1 [IIA-126]	0.1 to 1
COCCOCc1onc(-c2ccc(F)cc2)c1-c1ccnc(NC2CCCCC2)n1 [XIA-49]	< 0.1
Cc1onc(-c2c(F)cccc2F)c1-c1ccnc(Nc2ccc(F)cc2)n1 [IIA-95]	< 0.1
Cc1onc(-c2ccc3c(c2)OCO3)c1-c1ccnc(Nc2ccccc2)n1 [IIA-115]	0.1 to 1
Cc1onc(-c2ccccc2)c1-c1ccnc(NCC2CCCO2)n1 (stereo not shown) [IIAA-29]	0.1 to 1
Cc1onc(-c2c(F)cccc2Cl)c1-c1ccnc(Nc2ccccc2)n1 [IIA-75]	0.1 to 1
COCc1onc(-c2ccc(F)cc2)c1-c1ccnc(NC2CCCCC2)n1 [XIA-47]	< 0.1
CC(=O)c1ccc(Nc2nccc(-c3c(-c4ccccc4)noc3C)n2)cc1 [IIA-35]	< 0.1
Cc1onc(-c2ccccc2)c1-c1ccnc(N[C@H]2CC[C@H](O)CC2)n1 [IIAA-36]	< 0.1
COc1ccc(Nc2nccc(-c3c(-c4ccccc4)noc3C)n2)c(C)c1 [IIA-61]	< 0.1
Cc1onc(-c2ccccc2C(F)(F)F)c1-c1ccnc(Nc2ccccc2)n1 [IIA-112]	> 1
Cc1ccc2ccccc2c1Nc1nccc(-c2c(-c3ccccc3)noc2C)n1 [IIAA-15]	0.1 to 1

Now from value to compound:

Ki [µM]	SMILES
0.1 to 1	COc1cc(OC)cc(C(=O)Nc2nccc(-c3c(-c4cccc(F)c4)noc3C)n2)c1 [IIIA-47]
> 1	COc1ccc(C(=O)Nc2nccc(-c3c(-c4cccc(C#N)c4)noc3C)n2)cc1 [IIIA-40]
0.1 to 1	COc1ccc(C(=O)Nc2nccc(-c3c(-c4cccc(OCc5ccccc5)c4)noc3C)n2)cc1 [IIIA-32]
0.1 to 1	Cc1onc(-c2c(F)cccc2F)c1-c1ccnc(NC(=O)c2cccc(C#N)c2)n1 [IIIA-71]
0.1 to 1	Cc1onc(-c2ccccc2)c1-c1ccnc(NC(=O)c2ccc(C#N)cc2)n1 [IIIA-11]
0.1 to 1	COc1ccc(C(=O)Nc2nccc(-c3c(-c4ccccc4)noc3C)n2)cc1 [IIIA-7]
0.1 to 1	COc1cccc(C(=O)Nc2nccc(-c3c(-c4cccc(OCc5ccccc5)c4)noc3C)n2)c1 [IIIA-31]
< 0.1	Cc1onc(-c2ccccc2)c1-c1ccnc(NC(=O)c2cccc(C#N)c2)n1 [IIIA-43]
0.1 to 1	Cc1onc(-c2c(F)cccc2F)c1-c1ccnc(NC(=O)c2ccc3ccccc3c2)n1 [IIIA-73]
> 1	Cc1onc(-c2ccccc2)c1-c1ccnc(NC(=O)c2ccccc2Cl)n1 [IIIA-4]
0.1 to 1	Cc1ccc(C(=O)Nc2nccc(-c3c(-c4c(F)cccc4F)noc3C)n2)cc1 [IIIA-70]
0.1 to 1	Cc1ccc(C(=O)Nc2nccc(-c3c(-c4ccccc4F)noc3C)n2)cc1 [IIIA-60]
0.1 to 1	COc1cccc(C(=O)Nc2nccc(-c3c(-c4ccccc4C)noc3C)n2)c1 [IIIA-19]
> 1	COc1cc(C(=O)Nc2nccc(-c3c(-c4cccc([N+](=O)[O-])c4)noc3C)n2)cc(OC)c1OC [IIIA-34]
> 1	COc1cccc(C(=O)Nc2nccc(-c3c(-c4cccc([N+](=O)[O-])c4)noc3C)n2)c1 [IIIA-35]
0.1 to 1	Cc1cccc(C(=O)Nc2nccc(-c3c(-c4cccc(F)c4)noc3C)n2)c1 [IIIA-48]
0.1 to 1	COc1cc(OC)cc(C(=O)Nc2nccc(-c3c(-c4ccccc4C)noc3C)n2)c1 [IIIA-21]
0.1 to 1	COc1cc(OC)cc(C(=O)Nc2nccc(-c3c(-c4ccccc4F)noc3C)n2)c1 [IIIA-56]
0.1 to 1	Cc1cccc(C(=O)Nc2nccc(-c3c(-c4ccccc4F)noc3C)n2)c1 [IIIA-57]
0.1 to 1	COc1ccc(C(=O)Nc2nccc(-c3c(-c4ccccc4F)noc3C)n2)cc1 [IIIA-58]
0.1 to 1	COc1cccc(C(=O)Nc2nccc(-c3c(-c4ccccc4F)noc3C)n2)c1 [IIIA-55]
> 1	COc1cc(C(=O)Nc2nccc(-c3c(-c4cccc(C#N)c4)noc3C)n2)cc(OC)c1OC [IIIA-38]
